Where two headings read alike, the source gives them in different places.
Biological target: GST-Bcl-2 (Homo sapiens (Human), UniProt P10415)
Test: Time Resolved-Fluorescence Resonance Energy Transfer (TR-FRET) Bcl-2 binding assay
Procedure: Determination of the utility of compounds having Formula (I) as binders to and inhibitors of anti-apoptotic Bcl-2 proteins was performed using the Time Resolved-Fluorescence Resonance Energy Transfer (TR-FRET) Assay. Tb-anti-GST antibody was purchased from Invitrogen (Catalog No. PV4216).
(§1) Representative compounds were serially diluted in dimethyl sulfoxide (DMSO) starting at 50 μM (2× starting concentration; 10% DMSO) and 10 μL were transferred into a 384-well plate. The samples are then mixed on a shaker for 1 minute and incubated for an additional 3 hours at room temperature. For each assay, the probe/antibody and protein/probe/antibody were included on each assay plate as negative and positive controls, respectively. Fluorescence was measured on the Envision (Perkin Elmer) using a 340/35 nm excitation filter and 520/525 (F-Bak peptide) and 495/510 nm (Tb-labeled anti-Histidine antibody) emission filters.
as §1, with “The” for “Representative compounds were serially diluted in dimethyl sulfoxide (DMSO) starting at 50 μM (2× starting concentration; 10% DMSO) and 10 μL were transferred into a 384-well plate. The”, “were” for “are”
The inhibition constant (Ki) is the dissociation constant of an enzyme-inhibitor complex or a protein/small molecule complex, wherein the small molecule is inhibiting binding of one protein to another protein. So a large Ki value indicates a low binding affinity and a small Ki value indicates a high binding affinity.

[1] = GST-Bcl-2 1 nM, F-Bak peptide probe 100 nM, Tb-anti-GST antibody 1 nM, Ki by Wang's equation

Chain of GST-Bcl-2 (P10415 whole entry): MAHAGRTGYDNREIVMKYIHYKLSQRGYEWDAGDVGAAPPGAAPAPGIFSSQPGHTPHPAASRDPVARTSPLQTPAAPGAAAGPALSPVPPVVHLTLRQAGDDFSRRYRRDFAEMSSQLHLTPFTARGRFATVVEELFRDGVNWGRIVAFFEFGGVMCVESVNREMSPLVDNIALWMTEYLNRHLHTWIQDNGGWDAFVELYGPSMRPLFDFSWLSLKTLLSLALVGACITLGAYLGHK

Structure (SMILES)	Ki [1] [nM]	Ki [nM]
CCN1CCOCC1COc1ccc(S(=O)(=O)NC(=O)c2ccc(N3CCN(CC4=C(c5ccc(Cl)cc5)CC(C)(C)CC4)CC3)cc2Oc2cc3cc[nH]c3cc2F)cc1[N+](=O)[O-] (stereo not drawn) [Example 328, 4-(4-{[2-(4-chlorophenyl)-4,4-dimethylcyclohex-1-en-1-yl]methyl}piperazin-1-yl)-N-({4-[(4-ethylmorpholin-3-yl)methoxy]-3-nitrophenyl}sulfonyl)-2-[(6-fluoro-1H-indol-5-yl)oxy]benzamide]	0.068	–
CN1CCC(Nc2ccc(S(=O)(=O)NC(=O)c3ccc(N4CCN(CC5=C(c6ccc(Cl)cc6)CC(C)(C)CC5)CC4)cc3Oc3cccc(Cl)c3)cc2[N+](=O)[O-])CC1 [Example 36, 2-(3-chlorophenoxy)-4-(4-((2-(4-chlorophenyl)-4,4-dimethylcyclohex-1-en-1-yl)methyl)piperazin-1-yl)-N-((4-((1-methylpiperidin-4-yl)amino)-3-nitrophenyl)sulfonyl)benzamide]	0.07	–
CC1(C)CCC(CN2CCN(c3ccc(C(=O)NS(=O)(=O)c4ccc(NCC5CCOCC5)c([N+](=O)[O-])c4)c(Oc4ccc(NS(C)(=O)=O)nc4)c3)CC2)=C(c2ccc(Cl)cc2)C1 [Example 356, 4-(4-{[2-(4-chlorophenyl)-4,4-dimethylcyclohex-1-en-1-yl]methyl}piperazin-1-yl)-2-({6-[(methylsulfonyl)amino]pyridin-3-yl}oxy)-N-({3-nitro-4-[(tetrahydro-2H-pyran-4-ylmethyl)amino]phenyl}sulfonyl)benzamide]	2.82	–
Cc1nc(C)c(-c2cccc(Oc3cc(N4CCN(Cc5ccccc5-c5ccc(Cl)cc5)CC4)ccc3C(=O)NS(=O)(=O)c3ccc(NCCCN4CCOCC4)c([N+](=O)[O-])c3)c2)s1 [Example 33, 4-(4-((4′-chloro-1,1′-biphenyl-2-yl)methyl)piperazin-1-yl)-2-(3-(2,4-dimethyl-1,3-thiazol-5-yl)phenoxy)-N-((4-((3-morpholin-4-ylpropyl)amino)-3-nitrophenyl)sulfonyl)benzamide]	7.17	–
CC1(C)CCC(CN2CCN(c3ccc(C(=O)NS(=O)(=O)c4ccc(NC5CCN(C6CC6)CC5)c([N+](=O)[O-])c4)c(Oc4cnc(N)c(Cl)c4)c3)CC2)=C(c2ccc(Cl)cc2)C1 [Example 358, 2-[(6-amino-5-chloropyridin-3-yl)oxy]-4-(4-{[2-(4-chlorophenyl)-4,4-dimethylcyclohex-1-en-1-yl]methyl}piperazin-1-yl)-N-({4-[(1-cyclopropylpiperidin-4-yl)amino]-3-nitrophenyl}sulfonyl)benzamide]	0.062	–
CN(C)CCCNc1ccc(S(=O)(=O)NC(=O)c2ccc(N3CCN(Cc4ccccc4-c4ccc(Cl)cc4)CC3)cc2Oc2ccccc2Cl)cc1[N+](=O)[O-] [Example 11, 4-(4-((4′-chloro-1,1′-biphenyl-2-yl)methyl)piperazin-1-yl)-2-(2-chlorophenoxy)-N-((4-((3-(dimethylamino)propyl)amino)-3-nitrophenyl)sulfonyl)benzamide]	0.171	–
CC1(C)CCC(CN2CCN(c3ccc(C(=O)NS(=O)(=O)c4ccc(NCC5COCCO5)c([N+](=O)[O-])c4)c(Oc4cc5cc[nH]c5cc4F)c3)CC2)=C(c2ccc(Cl)cc2)C1 (stereo not drawn) [Example 292, 4-(4-{[2-(4-chlorophenyl)-4,4-dimethylcyclohex-1-en-1-yl]methyl}piperazin-1-yl)-N-({4-[(1,4-dioxan-2-ylmethyl)amino]-3-nitrophenyl}sulfonyl)-2-[(6-fluoro-1H-indol-5-yl)oxy]benzamide]	0.191	–
CN1CCC(Nc2ccc(S(=O)(=O)NC(=O)c3ccc(N4CCN(CC5=C(c6ccc(Cl)cc6)CC(C)(C)CC5)CC4)cc3Oc3cc(Cl)cc(Cl)c3)cc2[N+](=O)[O-])CC1 [Example 35, 4-(4-((2-(4-chlorophenyl)-4,4-dimethylcyclohex-1-en-1-yl)methyl)piperazin-1-yl)-2-(3,5-dichlorophenoxy)-N-((4-((1-methylpiperidin-4-yl)amino)-3-nitrophenyl)sulfonyl)benzamide]	0.022	–
CC1(C)CCC(CN2CCN(c3ccc(C(=O)NS(=O)(=O)c4ccc(NC[C@H]5CC[C@H](O)CC5)c([N+](=O)[O-])c4)c(Oc4cc5cc[nH]c5cc4F)c3)CC2)=C(c2ccc(Cl)cc2)C1 [Example 338, Trans-4-(4-{[2-(4-chlorophenyl)-4,4-dimethylcyclohex-1-en-1-yl]methyl}piperazin-1-yl)-2-[(6-fluoro-1H-indol-5-yl)oxy]-N-[(4-{[(4-hydroxycyclohexyl)methyl]amino}-3-nitrophenyl)sulfonyl]benzamide]	–	< 0.01
COCCNc1ccc(S(=O)(=O)NC(=O)c2ccc(N3CCN(CC4=C(c5ccc(Cl)cc5)CC(C)(C)CC4)CC3)cc2Oc2cccc3c2CC(=O)N3)cc1[N+](=O)[O-] [Example 321, 4-(4-{[2-(4-chlorophenyl)-4,4-dimethylcyclohex-1-en-1-yl]methyl}piperazin-1-yl)-N-({4-[(2-methoxyethyl)amino]-3-nitrophenyl}sulfonyl)-2-[(2-oxo-2,3-dihydro-1H-indol-4-yl)oxy]benzamide]	0.029	–
CC1(C)CCC(CN2CCN(c3ccc(C(=O)NS(=O)(=O)c4ccc(NC5CCN(C6CCOCC6)CC5)c([N+](=O)[O-])c4)c(-c4ccc(N)nc4)c3)CC2)=C(c2ccc(Cl)cc2)C1 [Example 255, 2-(6-aminopyridin-3-yl)-4-(4-{[2-(4-chlorophenyl)-4,4-dimethylcyclohex-1-en-1-yl]methyl}piperazin-1-yl)-N-({3-nitro-4-[(1-tetrahydro-2H-pyran-4-ylpiperidin-4-yl)amino]phenyl}sulfonyl)benzamide]	7.01	–
O=C(NS(=O)(=O)c1ccc(NCC2CCOCC2)c([N+](=O)[O-])c1)c1ccc(N2CCN(Cc3ccccc3-c3ccc(Cl)cc3)CC2)cc1Oc1ccc2[nH]cc(CCC(=O)N3CCOCC3)c2c1 [Example 73, 4-(4-((4′-chloro-1,1′-biphenyl-2-yl)methyl)piperazin-1-yl)-2-((3-(3-morpholin-4-yl-3-oxopropyl)-1H-indol-5-yl)oxy)-N-((3-nitro-4-((tetrahydro-2H-pyran-4-ylmethyl)amino)phenyl)sulfonyl)benzamide]	32.3	–
CC1(C)CCC(CN2CCN(c3ccc(C(=O)NS(=O)(=O)c4ccc(NN5CCS(=O)(=O)CC5)c([N+](=O)[O-])c4)c(Oc4cc5cc[nH]c5cc4F)c3)CC2)=C(c2ccc(Cl)cc2)C1 [Example 331, 4-(4-{[2-(4-chlorophenyl)-4,4-dimethylcyclohex-1-en-1-yl]methyl}piperazin-1-yl)-N-({4-[(1,1-dioxidothiomorpholin-4-yl)amino]-3-nitrophenyl}sulfonyl)-2-[(6-fluoro-1H-indol-5-yl)oxy]benzamide]	0.238	–
CC1(C)CCC(CN2CCN(c3ccc(C(=O)NS(=O)(=O)c4ccc(NCC5CCOCC5)c([N+](=O)[O-])c4)c(Oc4cc(N)ncc4Br)c3)CC2)=C(c2ccc(Cl)cc2)C1 [Example 395, 2-[(2-amino-5-bromopyridin-4-yl)oxy]-4-(4-{[2-(4-chlorophenyl)-4,4-dimethylcyclohex-1-en-1-yl]methyl}piperazin-1-yl)-N-({3-nitro-4-[(tetrahydro-2H-pyran-4-ylmethyl)amino]phenyl}sulfonyl)benzamide]	0.077	–
CC1(C)CCC(CN2CCN(c3ccc(C(=O)NS(=O)(=O)c4ccc(N[C@H]5CC[C@H](N6CCN(C7CCOCC7)CC6)CC5)c([N+](=O)[O-])c4)c(Oc4cc5cc[nH]c5cc4F)c3)CC2)=C(c2ccc(Cl)cc2)C1 [Example 336, Trans-4-(4-{[2-(4-chlorophenyl)-4,4-dimethylcyclohex-1-en-1-yl]methyl}piperazin-1-yl)-2-[(6-fluoro-1H-indol-5-yl)oxy]-N-[(3-nitro-4-{[4-(4-tetrahydro-2H-pyran-4-ylpiperazin-1-yl)cyclohexyl]amino}phenyl)sulfonyl]benzamide]	–	< 0.01
CN1CCC(Nc2ccc(S(=O)(=O)NC(=O)c3ccc(N4CCN(CC5=C(c6ccc(Cl)cc6)CC(C)(C)CC5)CC4)cc3Oc3cc4cc[nH]c4c(F)c3F)cc2[N+](=O)[O-])CC1 [Example 200, 4-(4-{[2-(4-chlorophenyl)-4,4-dimethylcyclohex-1-en-1-yl]methyl}piperazin-1-yl)-2-[(6,7-difluoro-1H-indol-5-yl)oxy]-N-({4-[(1-methylpiperidin-4-yl)amino]-3-nitrophenyl}sulfonyl)benzamide]	0.081	–
CC1(C)CCC(CN2CCN(c3ccc(C(=O)NS(=O)(=O)c4ccc(NC5CCN(C6CC6)CC5)c([N+](=O)[O-])c4)c(Oc4cc5cc[nH]c5cc4F)c3)CC2)=C(c2ccc(Cl)cc2)C1 [Example 327, 4-(4-{[2-(4-chlorophenyl)-4,4-dimethylcyclohex-1-en-1-yl]methyl}piperazin-1-yl)-N-({4-[(1-cyclopropylpiperidin-4-yl)amino]-3-nitrophenyl}sulfonyl)-2-[(6-fluoro-1H-indol-5-yl)oxy]benzamide]	0.212	–
CC1(C)CCC(CN2CCN(c3ccc(C(=O)NS(=O)(=O)c4ccc(NCC5CCOCC5)c([N+](=O)[O-])c4)c(Oc4cnc(N)c(C5CC5)c4)c3)CC2)=C(c2ccc(Cl)cc2)C1 [Example 366, 2-[(6-amino-5-cyclopropylpyridin-3-yl)oxy]-4-(4-{[2-(4-chlorophenyl)-4,4-dimethylcyclohex-1-en-1-yl]methyl}piperazin-1-yl)-N-({3-nitro-4-[(tetrahydro-2H-pyran-4-ylmethyl)amino]phenyl}sulfonyl)benzamide]	6.05	–

Source: US8952157B2, “Apoptosis-inducing agents for the treatment of cancer and immune and autoimmune diseases” (AbbVie Inc., priority 2008, dated 2015)
